The values that follow come from ChEMBL document CHEMBL1141089, “Conformationally restricted homotryptamines. 2. Indole cyclopropylmethylamines as selective serotonin reuptake inhibitors” (J Med Chem, 2005).

Experiment [1] has as its target T1, Sodium-dependent serotonin transporter (Homo sapiens, UniProt P31645). Briefly: Binding inhibition towards human serotonin transporter.
For experiment [2], the target named is T2, Sodium-dependent noradrenaline transporter (Homo sapiens, UniProt P23975). The experiment is described as follows: Binding inhibition towards human norepinephrine transporter at 1 uM.
T2 sequence (P23975 whole entry): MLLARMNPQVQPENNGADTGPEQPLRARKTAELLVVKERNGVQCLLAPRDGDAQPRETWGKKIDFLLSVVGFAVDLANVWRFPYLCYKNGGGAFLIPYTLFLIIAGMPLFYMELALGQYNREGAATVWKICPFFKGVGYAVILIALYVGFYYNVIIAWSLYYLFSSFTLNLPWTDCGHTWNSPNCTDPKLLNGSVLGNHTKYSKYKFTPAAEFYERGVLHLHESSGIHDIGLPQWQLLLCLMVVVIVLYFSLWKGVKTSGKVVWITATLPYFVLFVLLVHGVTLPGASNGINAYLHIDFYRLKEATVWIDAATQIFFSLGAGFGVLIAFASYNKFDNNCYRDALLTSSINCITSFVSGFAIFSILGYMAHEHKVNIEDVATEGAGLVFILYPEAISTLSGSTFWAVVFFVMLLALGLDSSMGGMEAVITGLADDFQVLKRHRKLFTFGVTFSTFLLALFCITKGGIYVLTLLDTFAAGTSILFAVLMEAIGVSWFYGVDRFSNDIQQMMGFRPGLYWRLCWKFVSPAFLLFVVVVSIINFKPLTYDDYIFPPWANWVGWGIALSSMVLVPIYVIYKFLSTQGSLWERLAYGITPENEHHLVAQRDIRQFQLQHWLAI
Experiment [3] concerns the target T3, Sodium-dependent dopamine transporter (Homo sapiens, UniProt Q01959). The experiment is described as follows: Binding inhibition towards human dopamine transporter at 1 uM.
The target in experiment [4] is T1, Sodium-dependent serotonin transporter. Briefly: In vitro binding inhibition towards human serotonin transporter.
Experiment [5] concerns the target T3, Sodium-dependent dopamine transporter. Briefly: Binding inhibition towards human dopamine transporter.
The target of experiment [6] is T2, Sodium-dependent noradrenaline transporter. The experiment is described as follows: In vitro binding affinity towards human norepinephrine transporter.

For orientation: Ki means the dissociation constant of the complex between target and ligand, obtained from inhibition or displacement. A high value points to a looser hold on the target. As usually defined, the inhibition is the change of the read-out against control, counted positive when it falls. High values mean strong suppression, low ones little suppression.

Where “and” joins values, the source holds several entries; their conditions need not be identical. Identical values can stand only once.

T3 sequence (Q01959 whole entry): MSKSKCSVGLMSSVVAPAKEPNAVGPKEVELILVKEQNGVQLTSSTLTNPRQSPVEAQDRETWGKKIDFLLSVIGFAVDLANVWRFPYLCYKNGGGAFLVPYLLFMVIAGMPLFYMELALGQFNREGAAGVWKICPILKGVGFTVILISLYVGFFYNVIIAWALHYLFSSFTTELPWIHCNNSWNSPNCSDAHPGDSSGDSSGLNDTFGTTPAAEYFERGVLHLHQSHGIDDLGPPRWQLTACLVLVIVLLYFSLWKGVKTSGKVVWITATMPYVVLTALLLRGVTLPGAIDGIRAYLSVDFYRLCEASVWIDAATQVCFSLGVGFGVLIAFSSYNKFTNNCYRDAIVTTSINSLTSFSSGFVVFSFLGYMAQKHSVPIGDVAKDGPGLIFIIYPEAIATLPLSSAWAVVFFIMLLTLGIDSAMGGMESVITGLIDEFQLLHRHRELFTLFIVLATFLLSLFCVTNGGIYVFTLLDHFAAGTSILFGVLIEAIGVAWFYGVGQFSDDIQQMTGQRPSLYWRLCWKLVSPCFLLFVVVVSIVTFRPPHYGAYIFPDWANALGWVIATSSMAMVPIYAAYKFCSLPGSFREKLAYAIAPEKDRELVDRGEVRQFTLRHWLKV
T1 sequence (P31645 whole entry): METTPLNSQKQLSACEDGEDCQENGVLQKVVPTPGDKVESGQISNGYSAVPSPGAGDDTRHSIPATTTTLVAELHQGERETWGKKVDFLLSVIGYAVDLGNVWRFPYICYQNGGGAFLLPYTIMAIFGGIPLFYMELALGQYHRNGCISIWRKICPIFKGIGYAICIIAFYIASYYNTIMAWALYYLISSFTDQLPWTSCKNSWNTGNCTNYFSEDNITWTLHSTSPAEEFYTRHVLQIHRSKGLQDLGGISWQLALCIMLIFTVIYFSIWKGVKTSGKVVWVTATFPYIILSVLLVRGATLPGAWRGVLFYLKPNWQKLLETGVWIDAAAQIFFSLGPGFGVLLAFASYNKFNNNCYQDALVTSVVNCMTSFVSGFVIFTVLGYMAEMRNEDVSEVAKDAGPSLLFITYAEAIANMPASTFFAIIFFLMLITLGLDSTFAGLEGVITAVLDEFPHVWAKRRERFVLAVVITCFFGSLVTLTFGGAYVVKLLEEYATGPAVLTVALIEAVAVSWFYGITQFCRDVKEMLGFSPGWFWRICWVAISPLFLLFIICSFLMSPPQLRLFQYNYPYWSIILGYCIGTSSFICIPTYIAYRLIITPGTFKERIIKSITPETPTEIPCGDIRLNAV

Regarding `CN(C)C[C@@H]1C[C@@H]1c1c[nH]c2ccc(F)cc12` (stereo in doubt; 16e) [listing 1 of 2 here], in experiment [1], the affinity corresponds to a Ki of 24 nM.
For the molecule `CN(C)CCCc1c[nH]c2ccc(F)cc12`, the inhibition in experiment [2] and in experiment [3] was below 50% throughout. In addition, in experiment [1], the affinity, expressed as Ki, was 4 nM.
Regarding `CN(C)C[C@@H]1C[C@@H]1c1c[nH]c2ccc(C#N)cc12` [listing 1 of 3 here], the inhibition in experiment [2] and in experiment [3] was below 50% throughout.
With `CN(C)C[C@@H]1C[C@@H]1c1c[nH]c2ccc(C#N)cc12` [listing 2 of 3 here], the affinity in experiment [1] corresponds to a Ki of 17 nM.
`CN(C)CCCc1c[nH]c2ccc(C#N)cc12`: the inhibition in experiment [2] and in experiment [3] was below 50% each time. In experiment [1], this molecule had a Ki of 2 nM.
Consider `CN(C)C[C@@H]1C[C@@H]1c1c[nH]c2ccc(F)cc12` (stereo in doubt; (-)-16e) [listing 1 of 2 here], for which affinity in experiment [1] was put at a Ki of 14 nM.
With `CN(C)C[C@H]1C[C@@H]1c1c[nH]c2cc(F)ccc12` (racemic), the inhibition in experiment [2] and in experiment [3] was below 50% each time. This molecule displayed an inhibition constant Ki in experiment [1] of 38 nM.
In experiment [1], `CN(C)C[C@H]1C[C@@H]1c1c[nH]c2ccc(F)cc12` [listing 1 of 2 here] registered a Ki of 0.68 nM.
For the molecule `CN(C)C[C@H]1C[C@@H]1c1cn(C)c2ccc(C#N)cc12`, the inhibition in experiment [2] and in experiment [3] was below 50% in each case. Further, the affinity in experiment [1], expressed as Ki, was 6.5 nM.
On to `CN(C)C[C@H]1C[C@@H]1c1c[nH]c2ccc(C#N)cc12` (racemic) [listing 1 of 2 here], for which the inhibition in experiment [2] and in experiment [3] was below 50% each time.
`CN(C)C[C@H]1C[C@H]1c1c[nH]c2ccc(F)cc12` had a Ki in experiment [1] of 100 nM.
Turning to `CN(C)C[C@H]1C[C@H]1c1c[nH]c2ccc(C#N)cc12`, the inhibition in experiment [2] and in experiment [3] was below 50% in each case. For the same molecule, the affinity in experiment [1], expressed as Ki, was 5.7 nM.
With `CN(C)C[C@H]1C[C@@H]1c1c[nH]c2cc(C#N)ccc12` (racemic), the inhibition in experiment [2] and in experiment [3] was below 50% each time. The molecule further yielded a Ki in experiment [1] of 7.4 nM.
Consider `CN(C)C[C@H]1C[C@@H]1c1c[nH]c2ccc(F)cc12` [listing 2 of 2 here], for which the inhibition in experiment [2] and in experiment [3] was below 50% each time.
Take `CCn1cc([C@H]2C[C@@H]2CN(C)C)c2cc(C#N)ccc21`: the inhibition in experiment [2] and in experiment [3] was below 50% in each case. The same molecule yielded a Ki in experiment [1] of 1.8 nM.
As to `CN(C)C[C@H]1C[C@@H]1c1c[nH]c2c(C#N)cccc12` (racemic), the inhibition in experiment [2] and in experiment [3] was below 50% throughout. In addition, the Ki in experiment [1] amounted to 0.58 nM.
Regarding `CN(C)C[C@H]1C[C@@H]1c1c[nH]c2ccc(C#N)cc12` (racemic) [listing 2 of 2 here], affinity in experiment [1] was put at a Ki of 0.56 nM.
For the molecule `CN(C)C[C@@H]1C[C@@H]1c1c[nH]c2ccc(F)cc12` (stereo in doubt; 16e) [listing 2 of 2 here], the inhibition in experiment [2] and in experiment [3] was below 50% throughout.
Consider `CN(C)C[C@H]1C[C@@H]1c1c[nH]c2c(F)cccc12` (racemic), for which the inhibition in experiment [2] and in experiment [3] was below 50% throughout. Moreover, in experiment [1], affinity was put at a Ki of 10 nM.
With `CN(C)C[C@H]1C[C@@H]1c1c[nH]c2cccc(F)c12` (racemic), the inhibition in experiment [2] and in experiment [3] was below 50% throughout. The molecule also showed a Ki in experiment [1] of 59 nM.
For the molecule `CN(C)C[C@@H]1C[C@@H]1c1c[nH]c2ccc(C#N)cc12` [listing 3 of 3 here], affinity in experiment [1] was put at a Ki of 7.1 nM.
As to `CN(C)C[C@@H]1C[C@H]1c1c[nH]c2ccc(C#N)cc12`, the inhibition in experiment [2] and in experiment [3] was below 50% each time. Further, the Ki in experiment [1] came out at 8.9 nM.
In the case of `CN(C)C[C@H]1C[C@@H]1c1c[nH]c2ccc(C#N)cc12`, the Ki is 0.18 nM in experiment [4], 2100 nM in experiment [5] and 4.6 µM in experiment [6].
With `CN(C)C[C@H]1C[C@@H]1c1c[nH]c2ccc(F)cc12` (racemic) [listing 1 of 2 here], the Ki in experiment [1] worked out at 2.1 nM.
On the same count and under the same terms, next, `CN(C)C[C@H]1C[C@@H]1c1c[nH]c2cccc(C#N)c12` (racemic): 230 nM and 420 nM.
For `CN(C)C[C@@H]1C[C@H]1c1c[nH]c2ccc(F)cc12`, the inhibition in experiment [2] and in experiment [3] was below 50% throughout. The affinity in experiment [1] corresponds to a Ki of 41 nM.
With `CN(C)C[C@@H]1C[C@@H]1c1c[nH]c2ccc(F)cc12` (stereo in doubt; (-)-16e) [listing 2 of 2 here], the inhibition in experiment [2] and in experiment [3] was below 50% in each case.
For `CN(C)C[C@H]1C[C@@H]1c1c[nH]c2ccc(F)cc12` (racemic) [listing 2 of 2 here], the inhibition in experiment [2] and in experiment [3] was below 50% each time.
